Results from patent US9856511B2, “Protease deubiquitinating inhibitor screening” (priority 2011, dated 2018).

How the values were obtained:
19S RP = biological target: T1, 19S RP (Homo sapiens, UniProt P54578+Q9Y5K5); test: De-ubiquitinase activity assay, purified 19S RP with ubiquitin-AMC; format: biochemical
T1 construct: purchased Boston Biochem E-366
Description: In vitro proteasome activity assays were performed in black 96-well microtiter plates using human 20S proteasome (Boston Biochem) in reaction buffer (25 mM Hepes, 0.5 mM EDTA, 0.03% SDS) with Suc-LLVY-AMC, Z-LLE-AMC or Boc-LRRAMC used as substrates for proteasome activity. De-ubiquitinase activity assays were performed with human 19S RP (Boston Biochem) with ubiquitin-AMC as substrate. For xenograft studies a 100-μl-cell suspension containing 1×10^6 FaDu head-neck or 2×10^5 Lewis Lung Carcinoma (LLC) cells were injected subcutaneously into the flank of SCID or C57BL/6J mice. Upon tumor take mice were randomized into control or treatment groups and administered with 5 mg kg^−1 b-AP15 or vehicle. In vivo levels of apoptosis and cell death were determined from the detection of caspase cleaved and total levels of cytokeratin-18 in plasma using M30 Apoptosense® and M65 ELISA®s assays (Peviva). […]
In vitro proteasome activity assays using 20S CP (2 nM) (Boston Biochem) were performed at 37° C. in 100-μl reaction buffer (25 mM Hepes, 0.5 mM EDTA, 0.03% SDS). […] Fluorescence was monitored using Wallac Multilabel counter or Tecan Infinite M1000 equipped with 360 nm excitation and 460 nm emission filters. […]
Dose response of b-AP15 (FIG. 11a): Purified 19S proteasomes (5 nM) were treated with indicated concentrations of b-AP15, and DUB activity was determined by detection of Ub-AMC cleavage. […]

UCHL5 = biological target: T2, UCHL5 (Homo sapiens, UniProt Q9Y5K5); test: HA-UbVS competitive active-site labelling of 19S RP or 26S proteasomes; format: binding; conditions: 19S RP or 26S proteasomes incubated with b-AP15
T2 construct: purchased Boston Biochem E-366 (19S), E-365 (26S)
Description: (§1) The deubiquitinating activity of the proteasome is attributed to the action of three DUBs, UCHL5, USP14 and POH1, all localized within the 19S RP 26-28. Both UCHL5 and USP14 are sensitive to N-ethylmaleimide (NEM), a general inhibitor of cysteine proteases, whereas POH1 is insensitive to inhibition by NEM but sensitive to metal chelators such as N,N,N,N-tetrakis-(2-pyridylmethyl)ethylenediamine (TPEN) (29). […] To identify specifically which DUBs were inhibited by b-AP15 treatment, competitive labelling experiments were performed using hemagglutinin tagged ubiquitin vinylsulphonone (HA-UbVS), an active site directed probe that irreversibly reacts with DUBs of the cysteine class (26).
(§2) For labelling of DUBs in cell lysates sub confluent cells were harvested by trypsinization, washed three times with PBS, and centrifuged at 1500 RPM for 5 min. Cell pellets were lysed with buffer (50 mM HEPES pH 7.4, 250 mM sucrose, 10 mM MgCl2, 2 mM ATP, 1 mM DTT) on ice for 15 min. Debris was removed by centrifugation and 25 μg of protein was labelled with 1 μM HA-UbVS for 30 min at 37° C. Samples were resolved by SDS-PAGE and analyzed by immunoblotting with indicated antibodies.
(§3) 19S RP were pre-treated with DMSO, NEM (10 mM) b-AP15 (50 μM) (FIG. 3a) or TPEN (250 μM) (FIG. 3b) followed by addition of Ub-GFP and immunoblotting with anti-GFP antibodies. […]

USP14 = biological target: T3, USP14 (Homo sapiens, UniProt P54578); test: as above; format: binding; conditions: 19S RP or 26S proteasomes incubated with b-AP15
T3 construct: purchased Boston Biochem E-366 (19S), E-365 (26S)
Description: as §1, §2, §3

C=CC(=O)N1C/C(=C\c2ccc([N+](=O)[O-])cc2)C(=O)/C(=C/c2ccc([N+](=O)[O-])cc2)C1 [b-AP15]
effect of reduced glutathione on inhibition of 19S DUB activity (19S RP; b-AP15 10 μM mixed with GSH 2 mM, 19S 5 nM): did not reduce b-AP15 mediated inhibition | reversibility of inhibition of 19S DUB activity (19S RP; recovery of activity after 50-fold rapid dilution of enzyme/b-AP15 complex): reversible inhibitor | Ub-VS labelling of UCHL5 (UCHL5): abolished Ub-VS labelling | Ub-VS labelling of USP14 (USP14): abolished Ub-VS labelling
